According to patent US20170037028A1 (BAYER PHARMA AKTIENGESELLSCHAFT, priority 2013, published 2017):

Each compound was assayed against T1, GLUT1 (Homo sapiens, UniProt P11166) (assay: Indirect measurement of GLUT1 activity by quantification of intracellular ATP levels (glucose induced ATP increase)). Conditions: read-out: IC50 regarding glucose induced ATP increase (GLUT1 inhibition).
T1 sequence (P11166 1-492): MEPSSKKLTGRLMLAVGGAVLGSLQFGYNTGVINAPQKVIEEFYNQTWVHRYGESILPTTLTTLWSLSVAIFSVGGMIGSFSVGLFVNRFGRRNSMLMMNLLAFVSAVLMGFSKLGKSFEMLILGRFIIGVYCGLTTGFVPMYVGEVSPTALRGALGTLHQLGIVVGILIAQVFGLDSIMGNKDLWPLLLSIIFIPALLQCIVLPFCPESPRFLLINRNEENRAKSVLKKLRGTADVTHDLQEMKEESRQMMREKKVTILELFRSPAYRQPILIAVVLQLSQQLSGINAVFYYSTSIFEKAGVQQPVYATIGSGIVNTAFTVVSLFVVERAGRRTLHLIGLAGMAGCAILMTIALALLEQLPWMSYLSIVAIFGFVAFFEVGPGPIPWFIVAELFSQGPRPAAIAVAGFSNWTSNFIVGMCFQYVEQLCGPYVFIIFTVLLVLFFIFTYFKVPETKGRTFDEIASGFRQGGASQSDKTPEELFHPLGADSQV
Type: cell-based
Set-up: endogenous in cells; host or cells: DLD1 or CHO-K1
In short: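 DLD1 or CHO-K1 cells were starved overnight in glucose-free medium with 1% FCS, then combined with an oxidative phosphorylation inhibitor. GLUT1 activity was read as glucose-induced ATP increase, GLUT2 as fructose-induced. Intracellular ATP was quantified by CellTiter-Glo luminescence.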

Q: With Cc1nn(Cc2ccc(C(=O)N(C)CCC3(O)CCCC3)cc2)c(C)c1NC(=O)c1cc(C(F)(F)F)nc2ccc(Br)cc12 [Example 1146] as the compound, how does the IC50 read?
A: 117 nM

Q: How did the IC50 turn out when CCc1ccc(Cn2nc(C(F)(F)F)c(NC(=O)c3cc(C(N)=O)nc4ccc(Br)cc34)c2C)cc1 [Example 1414] was run?
A: 0.8 nM

Q: For Cc1c(NC(=O)c2cc(C(N)=O)nc3cccc(F)c23)c(C(F)(F)F)nn1Cc1c(F)cccc1F [Example 1629], which IC50 is on record?
A: 16.2 nM

Q: For CNC(=O)c1nn(Cc2ccc(F)cc2)c(C)c1NC(=O)c1cc(OC)nc2ccccc12 [Example 1253], which IC50 is on record?
A: 1970 nM

Q: With Cc1nn(Cc2c(F)cccc2F)c(C)c1NC(=O)c1cc(C(N)=O)nc2cc(F)ccc12 [Example 1631] as the compound, how does the IC50 read?
A: 6.5 nM

Q: For Cc1nn(Cc2ccc(C(=O)NCCN3CCOCC3)cn2)c(C)c1NC(=O)c1cc(C(F)(F)F)nc2ccc(Br)cc12 [Example 1191], which IC50 is on record?
A: 335 nM

Q: Which IC50 does the source give for Cc1c(NC(=O)c2cc(C(F)(F)F)nc3cc(F)c(F)cc23)c(C(F)(F)F)nn1Cc1ccc(F)cc1F [Example 210, N-[1-(2,4-difluorobenzyl)-5-methyl-3-(trifluoromethyl)-1H-pyrazol-4-yl]-6,7-difluoro-2-(trifluoromethyl)quinoline-4-carboxamide] here?
A: 849 nM

Q: For Cc1nn(CCOc2ccc(C#N)cc2)c(C)c1NC(=O)c1cc(C(N)=O)nc2cc(F)c(Cl)cc12 [Example 294, 6-chloro-N^4-{1-[2-(4-cyanophenoxy)ethyl]-3,5-dimethyl-1H-pyrazol-4-yl}-7-fluoroquinoline-2,4-dicarboxamide], which IC50 is on record?
A: 6.6 nM

Q: Which IC50 does the source give for Cc1nn(Cc2ccc(C(=O)NCC3(C)COC3)cn2)c(C)c1NC(=O)c1cc(C(F)(F)F)nc2ccc(Br)cc12 [Example 1159] here?
A: 160 nM

Q: CNS(=O)(=O)c1cc(C(=O)Nc2c(C)nn(Cc3ccc(C#N)cc3)c2C)c2ccccc2n1 [Example 1575] was tested. Which IC50 did it give?
A: 37.9 nM

Q: COc1cc(C(=O)Nc2c(C)nn(Cc3ccc(F)c(F)c3)c2C)c2ccccc2n1 [Example 55, N-[1-(3,4-difluorobenzyl)-3,5-dimethyl-1H-pyrazol-4-yl]-2-methoxyquinoline-4-carboxamide] was tested. Which IC50 did it give?
A: 59.3 nM

Q: Which IC50 does the source give for Cc1c(NC(=O)c2cc(C(N)=O)nc3cc(F)ccc23)c(C(F)(F)F)nn1Cc1ccc(C#N)cn1 [Example 360, N^4-{1-[(5-cyanopyridin-2-yl)methyl]-5-methyl-3-(trifluoromethyl)-1H-pyrazol-4-yl}-7-fluoroquinoline-2,4-dicarboxamide] here?
A: 2 nM

Q: With CC(=O)NCCNC(=O)c1ccc(Cn2nc(C)c(NC(=O)c3cc(C(F)(F)F)nc4ccc(Br)cc34)c2C)cc1 [Example 1168] as the compound, how does the IC50 read?
A: 179 nM

Q: For COC(=O)c1coc(Cn2nc(C(F)(F)F)c(NC(=O)c3cc(C(N)=O)nc4cc(F)c(Cl)cc34)c2C)n1 [Example 1682], which IC50 is on record?
A: 36.7 nM

Q: Which IC50 does the source give for COc1ccc(Cn2nc(C)c(NC(=O)c3cc(C(F)(F)F)nc4ccc(Br)cc34)c2C)cc1 [Example 3, 6-bromo-N-[1-(4-methoxybenzyl)-3,5-dimethyl-1H-pyrazol-4-yl]-2-(trifluoromethyl)quinoline-4-carboxamide] here?
A: 3.1 nM

Q: Which IC50 does the source give for COCCN(CCC#N)C(=O)c1ccc(Cn2nc(C)c(NC(=O)c3cc(C(F)(F)F)nc4ccc(Br)cc34)c2C)cc1 [Example 1054] here?
A: 13.9 nM

Q: Which IC50 does the source give for Cc1c(NC(=O)c2cc(C(N)=O)nc3cccc(F)c23)c(C(F)(F)F)nn1Cc1ccccc1C#N [Example 273, N^4-[1-(2-cyanobenzyl)-5-methyl-3-(trifluoromethyl)-1H-pyrazol-4-yl]-5-fluoroquinoline-2,4-dicarboxamide] here?
A: 5.9 nM

Q: Which IC50 does the source give for Cc1nn(Cc2ccc(C(=O)N3CCC(O)C3)cc2)c(C)c1NC(=O)c1cc(C(F)(F)F)nc2ccc(Br)cc12 (racemic) [Example 1161] here?
A: 162 nM

Q: How did the IC50 turn out when Cc1c(NC(=O)c2cc(C(N)=O)nc3ccccc23)c(C(F)(F)F)nn1Cc1ccc(C2CCC2)cc1 [Example 1617] was run?
A: 54.9 nM

Q: With Cc1c(NC(=O)c2cc(C(N)=O)nc3cc(F)c(Cl)cc23)c(C(F)(F)F)nn1Cc1cccc(S(C)(=O)=O)c1 [Example 1638] as the compound, how does the IC50 read?
A: 61.3 nM

Q: With Cc1nn(Cc2ccc(CC(=O)O)cc2)c(C)c1NC(=O)c1cc(C(F)(F)F)nc2ccc(Br)cc12 [Example 151, (4-{[4-({[6-bromo-2-(trifluoromethyl)quinolin-4-yl]carbonyl}amino)-3,5-dimethyl-1H-pyrazol-1-yl]methyl}phenyl)acetic acid] as the compound, how does the IC50 read?
A: 1280 nM

Q: Which IC50 does the source give for Cc1ccc(C#N)c(Cn2nc(C(F)(F)F)c(NC(=O)c3cc(C(N)=O)nc4cc(F)ccc34)c2C)c1 [Example 1700] here?
A: 38.6 nM

Q: How did the IC50 turn out when CC(=O)c1cccc(Cn2nc(C(F)(F)F)c(NC(=O)c3cc(C(N)=O)nc4cccc(F)c34)c2C)c1 [Example 1620] was run?
A: 96.3 nM

Q: How did the IC50 turn out when CNC(=O)c1cc(C(=O)Nc2c(C)nn(Cc3ccc(F)cc3)c2C)c2ccccc2n1 [Example 172, N^4-[1-(4-fluorobenzyl)-3,5-dimethyl-1H-pyrazol-4-yl]-N^2-methylquinoline-2,4-dicarboxamide] was run?
A: 59.1 nM

Q: How did the IC50 turn out when Cc1nn(CCCc2ccc(C#N)cc2)c(C)c1NC(=O)c1cc(C(N)=O)nc2cc(F)c(Cl)cc12 [Example 346, 6-chloro-N^4-{1-[3-(4-cyanophenyl)propyl]-3,5-dimethyl-1H-pyrazol-4-yl}-7-fluoroquinoline-2,4-dicarboxamide] was run?
A: 0.6 nM

Q: For CCCCS(=O)(=O)N1CCC(Cn2nc(C)c(NC(=O)c3cc(C(N)=O)nc4ccccc34)c2C)CC1 [Example 1511], which IC50 is on record?
A: 31.8 nM

Q: With Cc1nn(CC2COc3ccccc3O2)c(C)c1NC(=O)c1cc(C(N)=O)nc2ccccc12 (centres unmarked) [Example 1103] as the compound, how does the IC50 read?
A: 44.7 nM

Q: Which IC50 does the source give for Cc1nn(Cc2ccc(C(=O)NC[C@H](C)O)cc2)c(C)c1NC(=O)c1cc(C(F)(F)F)nc2ccc(Br)cc12 [Example 1046] here?
A: 9.6 nM

Q: With Cc1nn(Cc2ccc(C#N)cc2F)c(C)c1NC(=O)c1cc(C(N)=O)nc2ccc(Br)cc12 [Example 299, 6-bromo-N^4-[1-(4-cyano-2-fluorobenzyl)-3,5-dimethyl-1H-pyrazol-4-yl]quinoline-2,4-dicarboxamide] as the compound, how does the IC50 read?
A: 6.8 nM

Q: With COc1ccc(CCCn2nc(C)c(NC(=O)c3cc(C(F)(F)F)nc4ccc(Br)cc34)c2C)cc1 [Example 1165] as the compound, how does the IC50 read?
A: 168 nM

Q: For Cc1c(NC(=O)c2cc(C(N)=O)nc3cc(F)c(Cl)cc23)c(C(F)(F)F)nn1Cc1ccc(C#N)cn1 [Example 359, 6-chloro-N^4-{1-[(5-cyanopyridin-2-yl)methyl]-5-methyl-3-(trifluoromethyl)-1H-pyrazol-4-yl}-7-fluoroquinoline-2,4-dicarboxamide], which IC50 is on record?
A: 1.3 nM

Q: For Cc1nn(Cc2ccc(S(C)(=O)=O)cc2)c(C)c1NC(=O)c1cc(C(N)=O)nc2ccccc12 [Example 224, N^4-{3,5-dimethyl-1-[4-(methylsulfonyl)benzyl]-1H-pyrazol-4-yl}quinoline-2,4-dicarboxamide], which IC50 is on record?
A: 11.2 nM

Q: For Cc1nn(Cc2ccc(F)c(F)c2)c(C)c1NC(=O)c1cc(C(N)=O)nc2ccc(Br)cc12 [Example 1469], which IC50 is on record?
A: 5.5 nM

Q: Which IC50 does the source give for COc1cc(C(=O)Nc2c(C)nn(Cc3cc(F)cc(F)c3)c2C)c2ccccc2n1 [Example 1284] here?
A: 6250 nM

Q: How did the IC50 turn out when Cc1nn(C(C)c2ccc(C#N)cc2)c(C)c1NC(=O)c1cc(C(N)=O)nc2cc(F)c(Cl)cc12 (racemic) [Example 330, (±)-6-chloro-N^4-{1-[1-(4-cyanophenyl)ethyl]-3,5-dimethyl-1H-pyrazol-4-yl}-7-fluoroquinoline-2,4-dicarboxamide] was run?
A: 1.3 nM

Q: How did the IC50 turn out when Cc1nn(Cc2ccccc2C#N)c(C)c1NC(=O)c1cc(C(F)(F)F)nc2c(Cl)cc(Cl)cc12 [Example 68, 6,8-dichloro-N-[1-(2-cyanobenzyl)-3,5-dimethyl-1H-pyrazol-4-yl]-2-(trifluoromethyl)quinoline-4-carboxamide] was run?
A: 148 nM

Q: Which IC50 does the source give for Cc1nn(Cc2ccc(F)cc2)c(C)c1NC(=O)c1cc(C(F)(F)F)nc2ccc(Br)cc12 [Example 9, 6-bromo-N-[1-(4-fluorobenzyl)-3,5-dimethyl-1H-pyrazol-4-yl]-2-(trifluoromethyl)quinoline-4-carboxamide] here?
A: 6.2 nM

Q: Which IC50 does the source give for Cc1nn(Cc2ccc(C(=O)NCCn3ccnc3)cc2)c(C)c1NC(=O)c1cc(C(F)(F)F)nc2ccc(Br)cc12 [Example 1116] here?
A: 59.5 nM

Q: For COc1cc(C(=O)Nc2c(C)nn(Cc3ccc(C(F)(F)F)cc3)c2C)c2ccccc2n1 [Example 1269], which IC50 is on record?
A: 2890 nM

Q: Which IC50 does the source give for Cc1nn(Cc2ccc(F)c(F)c2)c(C)c1NC(=O)c1cc(C(F)(F)F)nc2cc(F)ccc12 [Example 168, N-[1-(3,4-difluorobenzyl)-3,5-dimethyl-1H-pyrazol-4-yl]-7-fluoro-2-(trifluoromethyl)quinoline-4-carboxamide] here?
A: 47.8 nM

Q: Which IC50 does the source give for Cc1nn(Cc2ccc(C(=O)N3CCC(O)CC3)cc2)c(C)c1NC(=O)c1cc(C(F)(F)F)nc2ccc(Br)cc12 [Example 1217] here?
A: 676 nM

Q: Which IC50 does the source give for COc1ccccc1Cn1nc(C)c(NC(=O)c2cc(C)nc3ccc(C)cc23)c1C [Example 1232] here?
A: 1050 nM

Q: How did the IC50 turn out when Cc1nn(Cc2ccc(C#N)cc2F)c(C)c1NC(=O)c1cc(C(N)=O)nc2cc(F)c(Cl)cc12 [Example 296, 6-chloro-N^4-[1-(4-cyano-2-fluorobenzyl)-3,5-dimethyl-1H-pyrazol-4-yl]-7-fluoroquinoline-2,4-dicarboxamide] was run?
A: 0.6 nM

Q: With Cc1nn(Cc2ccc(C#N)cc2)c(C)c1NC(=O)c1cc(C(N)=O)nc2cccc(C)c12 [Example 257, N^4-[1-(4-cyanobenzyl)-3,5-dimethyl-1H-pyrazol-4-yl]-5-methylquinoline-2,4-dicarboxamide] as the compound, how does the IC50 read?
A: 2.4 nM
